The values that follow are results of earlier work, collected in US20240228966A1, “UROLITHIN FOR INCREASING STEM CELL FUNCTION” (SOCIETE DES PRODUITS NESTLE S.A., priority 2021, published 2024).

This data set deals with human HSCs. The settings on record: culture media supplemented with nicotinamide riboside; cited from earlier work.

As to `NC(=O)c1ccc[n+]([C@@H]2O[C@H](CO)[C@@H](O)[C@H]2O)c1` [nicotinamide riboside], the “levels of engraftment in recipient humanised mice” value is “significantly higher levels of engraftment”.
